Tests used:
HCVcc-luc = assay: Attachment versus post-attachment inhibition assay; format: cell-based, Hepatitis C virus; conditions: heparin 200 μg/ml, anti-CD81 5 μg/ml, hEP 20 μg/ml, bafilomycin A1 10 nM
Protocol: FIGS. 5A-5D. hEP inhibits HCV entry at the attachment step. (A) HCVcc-luc was first mixed with either scrambled peptide or hEP-2 (20 μg/ml) for one hour at room temperature. In Group 1, mixed virus was directly added to Huh7.5.1 cells, whereas in Group 2, virus was purified through ultracentrifuge at 28,000×g for 4 hours in order to remove peptide, and then used to infect Huh7.5.1 cells. **p<0.005. (B) The kinetics of hEP- and bafilomycin A1-mediated inhibition were determined by time-of-addition assays, as described in the examples section. Fitted lines represent sigmoidal time-dependent curves (mean of n=3; error bars, s.d.). (C) HCVcc-Luc was added to Huh7.5.1 cells at 4° C. and incubated for 1.5 hrs. Unbound virus was removed by 2 washes with cold media, fresh media was added, and the cells were shifted to 37° C. to allow synchronous infection to proceed. Heparin (200 μg/ml), anti-CD81 monoclonal antibody (5 μg/ml), hEP (20 μg/ml), or bafilomycin A1 (10 nM) were present in the media either continuously, during the 4° C. incubation only (attachment), or during the 37° C. incubation phase only (post-attachment). % Inhibition was calculated as 100-percent infection relative to control infections containing DMSO or an isotype antibody control containing 0.01% sodium azide (for anti-CD81 only) (mean of n=3; error bars, s.d.). (D) The effects of hEP (2.7 μM) or scrambled peptide on HCV binding were determined as described in the examples section. Results were calculated as relative RNA copies with numbers obtained from the scrambled peptide treated wells set to 100 (mean of n=3; error bars, s.d.). **p<0.005.
To investigate the mechanistic action of hEP, three sets of experiments were conducted. First, hEP-2 (SEQ ID NO: 9) or scrambled peptide-treated HCVcc were purified through ultracentrifugation to remove the peptide and then used to infect naïve Huh7.5.1 cells. […] Second, to determine the kinetics of inhibition, a time-of-addition experiment was conducted. HCV remained sensitive to bafilomycin A1, a fusion inhibitor that prevents endosome acidification, until 3 hours after the 37° C. temperature shift (FIG. 5B), which is consistent with previous reports (Koutsoudakis et al., J Virol 2006; 80:5308-5320). […] In order to determine whether hEP-2 (SEQ ID NO: 9) blocks infection at the initial attachment step or a downstream event in the HCV entry process, hEP-2 (SEQ ID NO: 9) was either added together with HCVcc to cells during the 4° C. attachment step only, and then removed prior to shifting the temperature to 37° C., or added only after the temperature shift. As a positive control, hEP-1 was present during the entire course of the experiment. […] Finally, the direct binding of virions to cell surface was measured using a real-time PCR based assay.

LDLR = assay: Surface LDLR level on Huh7.5.1 cells by flow cytometry; format: cell-based; conditions: various time periods
Protocol: (§1) FIGS. 4A-4C. (A) Huh7.5.1 cells seeded in a 12-well plate were treated with hEP-2 (20 μg/ml) for indicated time periods. Cells were stained with a mouse IgG (istotype control) or the anti-LDLR antibody followed by flow cytometric analysis. An overlay of 7 histograms is presented and the Δ median fluorescence intensity (ΔMFI, LDLR stain minus isotype control stain) of each sample is indicated to the upper right of the figure. (B) Cells were stained with anti-CD81 antibody and analyzed similarly as in A. (C) Immunonblots of SR-BI, CLDN1, and OCLN in the presence of hEP-2 or scrambled peptide.

OCLN = assay: Immunoblot of OCLN; format: cell-based
Protocol: as §1

Molecule	Inhibition when present after the temperature shift only (post-attachment) (HCVcc-luc)	Inhibition when present during the 4° C. attachment step only (HCVcc-luc)	Change of surface LDLR (LDLR)	Effect on level of OCLN (OCLN)
EELRVRLASHLRKLRKRLLRDADDLQKRLAVYEEQAQQIRLQAEAFQARLKSWFEPLVEDM [hEP-1]	very little inhibition	strongly inhibited		
hEP: human apoE dual-domain peptide: helix 4 of N-terminal domain plus major lipid-binding region; expressed in bacteria (protein) peptide: EELRVRLASHLRKLRKRLLRDADDLQKRLAVYEEQAQQIRLQAEAFQARLKSWFEPLVEDM			did not cause detectable change	did not affect

— US10125184B2, “Apolipoprotein E polypeptides and their use” (priority 2011, dated 2018)
